Assay results published in EP1389624A1, “Phosphorous-containing cysteine and serine protease inhibitors” (CEPHALON, INC., priority 1995, dated 1997).

Target: T1, Calpain I (Homo sapiens, UniProt P07384)
T1 sequence (P07384 1-714): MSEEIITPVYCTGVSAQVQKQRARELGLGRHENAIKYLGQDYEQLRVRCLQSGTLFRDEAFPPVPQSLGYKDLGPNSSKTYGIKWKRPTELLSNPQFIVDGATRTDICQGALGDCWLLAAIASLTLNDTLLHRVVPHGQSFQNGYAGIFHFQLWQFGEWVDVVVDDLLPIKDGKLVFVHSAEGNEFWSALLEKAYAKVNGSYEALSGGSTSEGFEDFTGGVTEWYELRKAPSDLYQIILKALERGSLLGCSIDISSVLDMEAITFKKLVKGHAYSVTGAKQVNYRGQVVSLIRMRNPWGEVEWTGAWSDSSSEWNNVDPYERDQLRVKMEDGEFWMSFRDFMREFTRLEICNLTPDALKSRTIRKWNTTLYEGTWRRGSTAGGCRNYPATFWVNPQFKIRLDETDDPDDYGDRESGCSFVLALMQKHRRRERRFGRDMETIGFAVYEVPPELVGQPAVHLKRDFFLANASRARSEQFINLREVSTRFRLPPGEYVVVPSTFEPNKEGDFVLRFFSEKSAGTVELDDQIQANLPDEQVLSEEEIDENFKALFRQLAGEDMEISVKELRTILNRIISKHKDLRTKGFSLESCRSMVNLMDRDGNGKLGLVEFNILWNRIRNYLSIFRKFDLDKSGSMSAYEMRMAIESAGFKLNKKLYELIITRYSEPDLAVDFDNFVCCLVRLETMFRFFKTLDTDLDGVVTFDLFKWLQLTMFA
T1 sequence (P04632 1-268 partner): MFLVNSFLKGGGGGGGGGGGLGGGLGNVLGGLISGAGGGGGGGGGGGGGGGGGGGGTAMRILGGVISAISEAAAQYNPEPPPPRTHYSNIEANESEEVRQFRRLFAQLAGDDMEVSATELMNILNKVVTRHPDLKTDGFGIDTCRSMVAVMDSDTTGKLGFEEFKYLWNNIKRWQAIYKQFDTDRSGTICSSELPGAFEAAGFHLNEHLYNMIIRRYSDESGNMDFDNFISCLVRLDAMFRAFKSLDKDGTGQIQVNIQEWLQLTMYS
Test: Inhibition and rate of inactivation of cysteine protease (calpain I) activity, Succ-Leu-Tyr-MNA substrate hydrolysis
Settings: for kobs/I x 10^-3 M^-1s^-1: apparent second order rate constant of inactivation from reaction progress curves under pseudo-first order conditions, mean of three or more determinations; for inhibition at 0.1 µM: read-out: % Inhib. @ 0.1 uM
Experimental: To evaluate inhibitory activity, stock solutions (40 times concentrated) of each compound to be tested were prepared in 100% anhydrous DMSO and 5 µl of each inhibitor preparation were aliquoted into each of three wells of a 96 well plate. […] To start the reaction, 20 µl of 50 mM CaCl2 in assay buffer was added to all wells of the plate, excepting three, which were used as background signal baseline controls. Substrate hydrolysis was monitored every 5 minutes for a total of 30 minutes. Substrate hydrolysis in the absence of inhibitor was linear for up to 15 minutes.
Inhibition of calpain I activity was calculated as the percent decrease in the rate of substrate hydrolysis in the presence of inhibitor (vi) relative to the rate in its absence (vo). Comparison between vo and vi was made within the linear range for substrate hydrolysis. […] Apparent second order rate constants were determined from analysis of reaction progress curves under pseudo-first order conditions. Each determination represents the mean of three or more independent single cuvette analyses continually monitored via a Perkin-Elmer LS50B spectrofluorimeter.

Compound | kobs/I x 10^-3 M^-1s^-1 | inhibition at 0.1 µM | % Inhib. @ 0.1 uM (0.1 uM compound, percent decrease in rate of substrate hydrolysis relative to no inhibitor)
CCOP(=O)(CC(=O)[C@H](Cc1ccccc1)NC(=O)[C@H](CC(C)C)NC(=O)OCc1ccccc1)c1ccccc1 (stereo partly drawn) [Example 64, Ethyl (3S)-[3-[(N-benzyloxycarbonyl-L-leucyl)amino]-2-oxo-4-phenylbutyl] (phenyl)phosphinate] | 4 x 10^-3 M^-1s^-1 | 26% | 
COP(=O)(O)C(=O)[C@H](CC(C)C)NC(=O)[C@H](CC(C)C)NC(=O)OCc1ccccc1 [Example 65, Methyl Hydrogen N-Benzyloxycarbonyl-L-leucyl-L-leucylphosphonate] |  | 19% | 
CCCCOP(=O)(OCCCC)C(=O)[C@H](CC(C)C)NC(=O)[C@H](CC(C)C)NC(=O)OCc1ccccc1 [Example 66, Dibutyl N-Benzyloxycarbonyl-L-leucyl-L-leucylphosphonate] |  | 0% | 
CC(C)C[C@H](NC(=O)OCc1ccccc1)C(=O)N[C@@H](CC(C)C)C(=O)P(=O)(c1ccc(Cl)cc1)c1ccc(Cl)cc1 [Example 67, [Benzyloxycarbonyl-L-leucyl-L-leucyl]bis(4-chlorophenyl)phosphine oxide] |  | 4% | 
CCOP(=O)(C(=O)[C@H](CC(C)C)NC(=O)[C@H](CC(C)C)NC(=O)OCc1ccccc1)c1ccccc1 (stereo partly drawn) [Example 68, Ethyl N-benzyloxycarbonyl-L-leucyl-L-leucyl(phenyl)phosphinate] |  | 0% | 
(3S)-2-[3-[(N-Benzyloxycarbonyl-L-leucyl)amino]-2-oxo-4-phenylbutyl] 1H-phosphindoline 2-oxide [Example 62] |  |  | 34%
(3S)-[3-[(N-Benzyloxycarbonyl-L-leucyl)amino]-2-oxo-4-phenylbutyl] [3-(morpholin-4-yl)propyl](phenyl)phosphinate [Example 61] | 17 x 10^-3 M^-1s^-1 |  | 
